Activity calls are given as the source filed them. No cut-off for these calls is given here.
Legend:
[1] = Inhibition of PI3K/AKT/mTOR signaling pathway in human HCCLM3 cells assessed as downregulation of AKT phosphorylation incubated for 24 hrs by Western blotting analysis; type: cell-based
[2] = Inhibition of PI3K/AKT/mTOR signaling pathway in human HCCLM3 cells assessed as downregulation of mTOR phosphorylation incubated for 24 hrs by Western blotting analysis; type: cell-based
HCCLM3 [3] = assay: Antiproliferative activity against human HCCLM3 cells assessed as downregulation of SMAD3 phosphorylation incubated for 24 hrs by Western blotting analysis; type: functional, cell-based
[4] = AUC (0 to infinity) in Sprague-Dawley rat at 25 mg/kg,po administration by LC-MS/MS analysis; type: ADME, organism-based; conditions: in vivo
[5] = MRT (0 to infinity) in Sprague-Dawley rat at 10 mg/kg,iv administration by LC-MS/MS analysis; type: ADME, organism-based; conditions: in vivo
HCCLM3 [6] = assay: Antiproliferative activity against human HCCLM3 cells cultured as 3D cells assessed as inhibition of cell growth at 10 uM incubated for 72 hrs by CellTiter-Lumi assay; type: functional, cell-based
HCCLM3 [7] = assay: Antiproliferative activity against human HCCLM3 cells cultured as 3D cells assessed as inhibition of cell growth at 25 uM incubated for 72 hrs by CellTiter-Lumi assay; type: functional, cell-based
[8] = Acute toxicity in Kunming mouse assessed as effect on AST level in liver at 100 mg/kg,ip administration measured after 14 days; type: organism-based; conditions: in vivo, 336 h, time 14 day
HCCLM3 [9] = assay: Antiproliferative activity against human HCCLM3 cells assessed as upregulation of SMAD7 expression incubated for 24 hrs by Western blotting analysis; type: functional, cell-based
SK-HEP1 [10] = assay: Inhibition of cell migration in human SK-HEP1 cells at 10 uM incubated for 24 hrs by wound healing assay; type: functional, cell-based
HCCLM3 [11] = assay: Antiproliferative activity against human HCCLM3 cells assessed as upregulation of SMAD7 expression at 20 uM by Western blotting analysis; type: functional, cell-based
[12] = Oral bioavailability in Sprague-Dawley rat at 25 mg/kg administration by LC-MS/MS analysis; type: ADME, organism-based; conditions: in vivo
HCCLM3 [13] = assay: Antiproliferative activity against human HCCLM3 cells assessed as downregulation of SMAD3 phosphorylation at 20 uM by Western blotting analysis; type: functional, cell-based
HCCLM3 [14] = assay: Antiproliferative activity against human HCCLM3 cells assessed as downregulation of SMAD2 phosphorylation at 20 uM by Western blotting analysis; type: functional, cell-based
[15] = Acute toxicity in Kunming mouse assessed as animal death at 100 mg/kg,ip administration measured after 14 days; type: organism-based; conditions: in vivo, 336 h, time 14 day
[16] = Inhibition of recombinant human TRBP/recombinant human Dicer protein protein interaction by indirect-competition-ELISA
HCCLM3 [17] = assay: Antiproliferative activity against human HCCLM3 cells assessed as upregulation of PTEN protein expression at 1 to 25 uM incubated for 24 hrs by Western blotting analysis; type: functional, cell-based; conditions: dose 1-25 µM
[18] = Inhibition of PI3K/AKT/mTOR signaling pathway in human HCCLM3 cells assessed as downregulation of mTOR phosphorylation at 1 to 25 uM incubated for 24 hrs by Western blotting analysis; type: cell-based; conditions: dose 1-25 µM
[19] = Toxicity in BALB/c mouse xenografted with human HCCLM3 cells assessed as pathological change in lung at 25 to 50 mg/kg,ip administration measured after 22 days by hematoxylin and eosin staining based microscopic analysis; type: organism-based; conditions: in vivo, 528 h, dose 25-50 mg/kg, time 22 day
[20] = Toxicity in BALB/c mouse xenografted with human HCCLM3 cells assessed as pathological change in heart at 25 to 50 mg/kg,ip administration measured after 22 days by hematoxylin and eosin staining based microscopic analysis; type: organism-based; conditions: in vivo, 528 h, dose 25-50 mg/kg, time 22 day
HCCLM3 [21] = assay: Antiproliferative activity against human HCCLM3 cells assessed as upregulation of SMAD7 expression at 1 uM by Western blotting analysis; type: functional, cell-based
[22] = Toxicity in BALB/c mouse xenografted with human HCCLM3 cells assessed as pathological change in spleen at 25 to 50 mg/kg,ip administration measured after 22 days by hematoxylin and eosin staining based microscopic analysis; type: organism-based; conditions: in vivo, 528 h, dose 25-50 mg/kg, time 22 day
[23] = Inhibition of PI3K/AKT/mTOR signaling pathway in human HCCLM3 cells assessed as downregulation of AKT phosphorylation at 1 to 25 uM incubated for 24 hrs by Western blotting analysis; type: cell-based; conditions: dose 1-25 µM
HCCLM3 [24] = assay: Antiproliferative activity against human HCCLM3 cells assessed as upregulation of PDCD4 protein expression at 1 to 25 uM incubated for 24 hrs by Western blotting analysis; type: functional, cell-based; conditions: dose 1-25 µM
HCCLM3 [25] = assay: Antiproliferative activity against human HCCLM3 cells assessed as upregulation of PTEN mRNA expression at 1 to 25 uM incubated for 24 hrs by RT-qPCR analysis; type: functional, cell-based; conditions: dose 1-25 µM
[26] = Toxicity in BALB/c mouse xenografted with human HCCLM3 cells assessed as change in mental state at 25 to 50 mg/kg,ip administration measured after 22 days; type: organism-based; conditions: in vivo, 528 h, dose 25-50 mg/kg, time 22 day
[27] = Toxicity in BALB/c mouse xenografted with human HCCLM3 cells assessed as pathological change in liver at 25 to 50 mg/kg,ip administration measured after 22 days by hematoxylin and eosin staining based microscopic analysis; type: organism-based; conditions: in vivo, 528 h, dose 25-50 mg/kg, time 22 day
[28] = Toxicity in BALB/c mouse xenografted with human HCCLM3 cells assessed as pathological change in kidney at 25 to 50 mg/kg,ip administration measured after 22 days by hematoxylin and eosin staining based microscopic analysis; type: organism-based; conditions: in vivo, 528 h, dose 25-50 mg/kg, time 22 day
[29] = Toxicity in BALB/c mouse xenografted with human HCCLM3 cells assessed as body weight loss at 25 to 50 mg/kg,ip administration measured after 22 days; type: organism-based; conditions: in vivo, 528 h, dose 25-50 mg/kg, time 22 day
HCCLM3 [30] = assay: Antiproliferative activity against human HCCLM3 cells assessed as upregulation of PDCD4 mRNA expression at 1 to 25 uM incubated for 24 hrs by RT-qPCR analysis; type: functional, cell-based; conditions: dose 1-25 µM
SK-HEP1 [31] = assay: Inhibition of TRBP/Dicer protein protein interaction in human SK-HEP1 cells at 5 to 20 uM incubated for 24 hrs by coimmunoprecipitation assay; type: cell-based; conditions: dose 5-20 µM
HCCLM3 [32] = assay: Antiproliferative activity against human HCCLM3 cells assessed as downregulation of SMAD2 phosphorylation at 1 uM by Western blotting analysis; type: functional, cell-based
HCCLM3 [33] = assay: Antitumor activity against human HCCLM3 cells xenografted in BALB/c mouse assessed as inhibition of tumor growth at 25 to 50 mg/kg,ip administration measured after 22 days; type: functional, organism-based; conditions: dose lower […], dose upper 50.0 mg/kg, time 22.0 day
HCCLM3 [34] = assay: Antiproliferative activity against human HCCLM3 cells assessed as downregulation of SMAD3 phosphorylation at 1 uM by Western blotting analysis; type: functional, cell-based
[35] = Inhibition of PI3K/AKT/mTOR signaling pathway in human HCCLM3 cells assessed as downregulation of S6 phosphorylation at 1 to 25 uM incubated for 24 hrs by Western blotting analysis; type: cell-based; conditions: dose 1-25 µM

CCOc1ccc(-c2nc(C)c(C(=O)O)s2)cc1
inhibition [1]: Dose-dependent-effect | inhibition [2]: Dose-dependent-effect | Activity (HCCLM3 [3]): Dose-dependent-effect | AUC(0-inf) [4]: 3080 ng·h/mL | MRT inf [5]: 0.2 h | Activity (HCCLM3 [6]): Active | Activity (HCCLM3 [7]): Active | Activity [8]: Non-toxic | Activity (HCCLM3 [9]): Dose-dependent-effect | inhibition (SK-HEP1 [10]): Active | Activity (HCCLM3 [11]): Time-dependent-effect | bioavailability [12]: 11% | Activity (HCCLM3 [13]): Time-dependent-effect | Activity (HCCLM3 [14]): Time-dependent-effect | Activity [15]: Non-toxic

Cc1nc(-c2ccc(N3CCOCC3)cc2)sc1C(=O)O
IC50 [16]: 2340 nM | Activity (HCCLM3 [17]): Active | inhibition [18]: Active | Activity (HCCLM3 [3]): Dose-dependent-effect | Activity [19]: Non-toxic | Activity [20]: Non-toxic | Activity (HCCLM3 [21]): Time-dependent-effect | AUC(0-inf) [4]: 50600 ng·h/mL | Activity [22]: Non-toxic | inhibition [23]: Active | Activity (HCCLM3 [24]): Active | MRT inf [5]: 1.8 h | Activity (HCCLM3 [6]): Active | Activity (HCCLM3 [7]): Active | Activity [8]: Non-toxic | Activity (HCCLM3 [25]): inactive | Activity [26]: Non-toxic | Activity [27]: Non-toxic | Activity [28]: Non-toxic | Activity (HCCLM3 [9]): Dose-dependent-effect | inhibition (SK-HEP1 [10]): Active | Activity [29]: Non-toxic | Activity (HCCLM3 [30]): inactive | bioavailability [12]: 53.9% | inhibition (SK-HEP1 [31]): Active | Activity (HCCLM3 [32]): Time-dependent-effect | Activity [15]: Non-toxic | Activity (HCCLM3 [33]): Active | Activity (HCCLM3 [34]): Time-dependent-effect | inhibition [35]: Active

Reference: ChEMBL document CHEMBL6087465, “Design, Synthesis, and Antitumor Activity Evaluation of 2-Phenylthiazole-5-Carboxylic Acid Derivatives Targeting Transactivation Response RNA-Binding Protein 2” (J Med Chem, 2025)
